According to patent US4045298A, “Antibiotic XK-62-2 and process for production thereof” (priority 1972, dated 1977):
In brackets after ≈: the same amount, converted by molar mass.

Columns and labels:
Solubility = format: physicochemical
[1] = test system: Pseudomonas aeruginosa KY 8510; experiment: In vivo protection of mice against bacterial infection; settings: subcutaneous, inoculum 6.6×10^7 cells/mouse intraperitoneal
Procedure: In addition, the in vivo activity of XK-62-2 against pathogenic bacterial infections in mice is tested. […] They are then treated with various doses of the test antibiotic by subcutaneous injection.

[2] = test system: Escherichia coli GN 2411-5; experiment: In vivo activity against pathogenic bacterial infections in mice
From the text: (§1) The in vivo activity of XK-62-2 against pathogenic bacterial infections in mice is further tested using various Gram-positive and Gram-negative bacteria. The mice are infected with an inoculum of the bacteria by intraperitonial injection and then treated with the test antibiotic by subcutaneous injection.

Proteus mirabilis 1287 = experiment: as above
From the text: as §1

[3] = test system: Staphylococcus aureus Smith; experiment: as above
From the text: as §1

[4] = test system: Diplococcus pneumoniae III; experiment: as above
From the text: as §1

[5] = test system: Streptococcus pyogenes S23; experiment: as above
From the text: as §1

[6] = test system: Klebsiella pneumoniae No. 8045; experiment: as above
From the text: as §1

[7] = test system: Pseudomonas aeruginosa BMH No. 1; experiment: In vivo protection of mice against bacterial infection; settings: subcutaneous, inoculum 3.8×10^8 cells/mouse intraperitoneal
Procedure: In addition, the in vivo activity of XK-62-2 against pathogenic bacterial infections in mice is tested. The mice are infected with an inoculum of 3.8× 10^8 cells/mouse of Pseudomonas aeruginosa BMH No. 1 or 6.6× 10^7 cells/mouse of Pseudomonas aeruginosa KY 8510 by intraperitoneal injection. They are then treated with various doses of the test antibiotic by subcutaneous injection. The effect of XK-62-2 on the protection of the bacterial infections is shown in the following Table 8 wherein ten mice are used in each test.

[8] = test system: Proteus rettgeri Hambrook; experiment: Minimum inhibitory concentration by agar dilution method; format: cell-based; settings: Providencia rettgeri; agar dilution; Table 6; read-out: Minimum inhibitory concentration
From the text: (§2) The comparative in vitro activities of these antibiotics against various microorganisms of the genus Proteus are shown in the following Table 6.
(§3) Minimum inhibitory concentration
(§4) (γ/ml : by agar dilution method)

[9] = test system: Proteus mirabilis Finland 9; experiment: as above; format: cell-based; settings: FINLAND9, agar dilution, Table 6, read-out: Minimum inhibitory concentration
From the text: as §2, §3, §4

Proteus mirabilis No. 39 = experiment: as above; format: cell-based; settings: NO.39, agar dilution, Table 6, read-out: Minimum inhibitory concentration
From the text: as §2, §3, §4

Proteus vulgaris KY 4296 = experiment: as above; format: cell-based; settings: KY4296, Table 6
From the text: as §2, §3, §4

[10] = test system: Proteus mirabilis No. 825; experiment: as above; format: cell-based; settings: NO.825, agar dilution, Table 6, read-out: Minimum inhibitory concentration
From the text: as §2, §3, §4

Proteus vulgaris KY 4297 = experiment: as above; format: cell-based; settings: KY4297, Table 6
From the text: as §2, §3, §4

Proteus morganii Jenkins = experiment: as above; format: cell-based; settings: Morganella morganii; agar dilution; Table 6; read-out: Minimum inhibitory concentration
From the text: as §2, §3, §4

Proteus rettgeri Booth = experiment: as above; format: cell-based; settings: Providencia rettgeri; agar dilution; Table 6; read-out: Minimum inhibitory concentration
From the text: as §2, §3, §4

[11] = test system: Proteus vulgaris Abbott JJ; experiment: as above; format: cell-based; settings: agar dilution, Table 6, read-out: Minimum inhibitory concentration
From the text: as §2, §3, §4

[12] = test system: Salmonella typhosa ATCC 9992; experiment: Antibacterial spectra by agar dilution method; format: cell-based; settings: Salmonella enterica, read-out: Minimum inhibitory concentration
From the text: (§5) Antibacterial spectra of XK-62-2 by agar

[13] = test system: Klebsiella pneumoniae ATCC 10031; experiment: Antibacterial spectra by agar dilution method; format: cell-based; settings: ATCC10031, Table 5, read-out: Minimum inhibitory concentration
From the text: as §5

Escherichia coli KY 8310 = experiment: Antibacterial spectra by agar dilution method; format: cell-based; settings: KY8310, resistant to chloramphenicol, streptomycin, kanamycin, gentamicin, kanendomycin, paromomycin, tetracycline and spectinomycin, read-out: Minimum inhibitory concentration
From the text: as §5

[14] = test system: Staphylococcus aureus KY 8957; experiment: Antibacterial spectra by agar dilution method; format: cell-based; settings: KY8957, resistant to chloramphenicol, streptomycin, kanendomycin, tetracycline and paromomycin, read-out: Minimum inhibitory concentration
From the text: as §5

Escherichia coli ATCC 26 = experiment: Antibacterial spectra by agar dilution method; format: cell-based; settings: ATCC26, Table 5, read-out: Minimum inhibitory concentration
From the text: as §5

[15] = test system: Bacillus cereus ATCC 9634; experiment: Antibacterial spectra by agar dilution method; format: cell-based; settings: ATCC9634, Table 5, read-out: Minimum inhibitory concentration
From the text: as §5

[16] = test system: Pseudomonas aeruginosa BMH No. 1; experiment: Antibacterial spectra by agar dilution method; format: cell-based; settings: BMHNO.1, Table 5, read-out: Minimum inhibitory concentration
From the text: as §5

[17] = test system: Staphylococcus aureus KY 8956; experiment: Antibacterial spectra by agar dilution method; format: cell-based; settings: KY8956, resistant to streptomycin, paromomycin, tetracycline, erythromycin and oleandomycin, read-out: Minimum inhibitory concentration
From the text: as §5

CNC[C@@H]1CC[C@@H](N)[C@@H](O[C@H]2[C@H](O)[C@@H](O[C@H]3OC[C@](C)(O)[C@H](NC)[C@H]3O)[C@H](N)C[C@@H]2N)O1 [XK-62-2]
Solubility in acetone (Solubility; acetone): soluble
Solubility in chloroform, benzene, ethyl acetate, butyl acetate, ether, butanol, petroleum ether, n-hexane (Solubility; chloroform, benzene, ethyl acetate, butyl acetate, ether, butanol, petroleum ether, n-hexane, etc.): insoluble
Solubility in ethanol (Solubility; ethanol): soluble
Solubility in methanol (Solubility; methanol): soluble
Solubility in ordinary organic solvents (Solubility; ordinary organic solvents): poorly soluble
Solubility in water (Solubility; water): very soluble
Survival of mice ([1]; 0.125 mg/mouse): 0%
Survival of mice ([1]; 0.25 mg/mouse): 30%
Survival of mice ([1]; 0.5 mg/mouse): 50%
Survival of mice ([1]; 1 mg/mouse): 80%
Survival of mice ([1]; 2 mg/mouse): 100%
ED50 ([2]; Escherichia coli, GN2411, sc, subcutaneous, challenge inoculum 3.6×10^6 cells/mouse, read-out: Median effective dose [ED50]): 10.8 ± 4.1 mg/kg
Ratio XK-62-2/gentamicin complex ([2]; ratio of ED50): 1.01
ED50 (Proteus mirabilis 1287; Proteus mirabilis, 1287, sc, subcutaneous, challenge inoculum 1.8×10^8 cells/mouse, read-out: Median effective dose [ED50]): 10.4 ± 4.4 mg/kg
Ratio XK-62-2/gentamicin complex (Proteus mirabilis 1287; ratio of ED50): 0.97
ED50 ([3]; Staphylococcus aureus, sc, subcutaneous, challenge inoculum 1.8×10^8 cells/mouse, read-out: Median effective dose [ED50]): 0.28 ± 0.04 mg/kg
Ratio XK-62-2/gentamicin complex ([3]; ratio of ED50): 1.33
ED50 ([4]; Streptococcus pneumoniae, sc, subcutaneous, challenge inoculum 4.4×10^3 cells/mouse, read-out: Median effective dose [ED50]): 6.6 ± 1.9 mg/kg
Ratio XK-62-2/gentamicin complex ([4]; ratio of ED50): 0.86
ED50 ([5]; Streptococcus pyogenes, S23, sc, subcutaneous, challenge inoculum 2.7×10^7 cells/mouse, read-out: Median effective dose [ED50]): 17.7 ± 4.8 mg/kg
Ratio XK-62-2/gentamicin complex ([5]; ratio of ED50): 1.50
ED50 ([6]; Klebsiella pneumoniae, NO.8045, sc, subcutaneous, challenge inoculum 1.4×10^8 cells/mouse, read-out: Median effective dose [ED50]): 5.7 ± 1.4 mg/kg
Ratio XK-62-2/gentamicin complex ([6]; ratio of ED50): 0.74
Survival of mice ([7]; 0.125 mg/mouse): 0%
Survival of mice ([7]; 0.25 mg/mouse): 10%
Survival of mice ([7]; 0.5 mg/mouse): 50%
Survival of mice ([7]; 1 mg/mouse): 90%
Survival of mice ([7]; 2 mg/mouse): 100%
MIC [8]: 0.021 µg/mL (≈ 0.0453 µM)
MIC [9]: 0.04 µg/mL (≈ 0.0863 µM)
MIC (Proteus mirabilis No. 39): 0.021 µg/mL (≈ 0.0453 µM)
MIC (Proteus vulgaris KY 4296): 0.021 µg/mL (≈ 0.0453 µM)
MIC [10]: 0.021 µg/mL (≈ 0.0453 µM)
MIC (Proteus vulgaris KY 4297): 0.021 µg/mL (≈ 0.0453 µM)
MIC (Proteus morganii Jenkins): 0.04 µg/mL (≈ 0.0863 µM)
MIC (Proteus rettgeri Booth): 0.021 µg/mL (≈ 0.0453 µM)
MIC [11]: 0.021 µg/mL (≈ 0.0453 µM)
MIC [12]: 0.018 µg/mL (≈ 0.0388 µM)
MIC [13]: 0.0082 µg/mL (≈ 0.0177 µM)
MIC (Escherichia coli KY 8310): 1.05 µg/mL (≈ 2.27 µM)
MIC [14]: 0.0021 µg/mL (≈ 0.00453 µM)
MIC (Escherichia coli ATCC 26): 0.0082 µg/mL (≈ 0.0177 µM)
MIC [15]: 0.016 µg/mL (≈ 0.0345 µM)
MIC [16]: 0.53 µg/mL (≈ 1.14 µM)
MIC [17]: < 0.001 µg/mL
